Values quoted from earlier work in patent publication US12083128B2, “Use of medications with neuroprotective properties to prevent or reduce the risk of ischemia-reperfusion injury in a subject” (priority 2015, dated 2024).
Like-named read-outs stand apart in the source and are kept apart here.

How the values were obtained:
retinal gangion cells [1] = conditions: in vivo, animals; cited from earlier work
[2] = system: endothelin 1 induced ischemic retinal injury; conditions: daily topical administration, animals; cited from earlier work
optic nerve blood flow = conditions: animal models; cited from earlier work
retinal gangion cells [3] = conditions: in vitro; cited from earlier work
[4] = intravitreal injections for AMD, 49 eyes followed for 12 months; cited from earlier work

Molecule | protection of retinal ganglion cells from apoptosis (retinal gangion cells [1]) | RNFL thickness in treated eyes [2] | protection against endothelin 1 induced ischemic retinal injury [2] | optic nerve blood flow (optic nerve blood flow) | protection of retinal ganglion cells from apoptosis (retinal gangion cells [3]) | RNFL thinning [4]
CC(C)OC(=O)CCC/C=C\C[C@@H]1[C@@H](/C=C/C(F)(F)COc2ccccc2)[C@H](O)C[C@@H]1O [tafluprost] | protects retinal gangion cells from apoptosis | thicker in treated eyes | protective | improved optic nerve blood flow | protects retinal gangion cells from apoptosis | 
Ranibizumab |  |  |  |  |  | caused significant RNFL thinning
